The text below walks through data of article PMC10526209, “Systematic Exploration of Functional Group Relevance for Anti-Leishmanial Activity of Anisomycin” (Biomedicines, 2023).

The subject of data set [1] is rabbit reticulocytes (RR). Kind of data set: Cell-free transcription-translation inhibition in rabbit reticulocytes. The format is biochemical. The note with it: inhibition of translation in rabbit reticulocyte lysate, luciferase reporter, 90 min at 30 °C. How it is done:
(§1) Cytosolic ribosome susceptibility and selectivity were assessed through three different cell-free transcription-translation assays: (1) An extract of E. coli (S30, Promega, Madison, WI, USA), (2) in rabbit reticulocytes (Promega), and (3) in L. tarentolae lysate (Jena Bioscience, Jena, Germany). Three plasmids, compatible with each extract system, were used in this study: pBESTlucTM (Promega) for the prokaryotic translation assay, Luciferase T7 DNA (Promega) for the reticulocytes, and pLEXSY-invitro2-EGFP (Jena Bioscience) for Leishmania. Firefly luciferase was used as a reporter gene for the bacterial and reticulocyte systems, and EGFP for Leishmania. […] Assays were performed in white polystyrene 96-well flat-bottom plates (Nunc, Roskilde, Denmark) for luciferase and black polystyrene 384-well flat-bottom plates (Greiner, Kremsmunster, Austria) for EGFP. Incubation times were 60 min at 37 °C, 90 min at 30 °C, and 120 min at 26 °C for the bacterial, reticulocyte, and Leishmania systems, respectively. Reactions were stopped by quick snap cooling followed by a 5 min incubation on ice. Luciferase activity was measured for each well following the addition of 50 μL of Luciferase Assay reagent (Promega, Madison, WI, USA) with an automatic reagent injector (Tecan, Mannedorf, Switzerland) by recording the chemical-luminescence signal. EGFP fluorescence (λex = 488 nm; λem = 507 nm) was recorded on a Tecan Infinite R®F200 microplate reader (Tecan). Extracts lacking the circular DNA template were used as a negative control to calculate the fluorescence/chemical luminescence background. Reaction mixtures without compounds were used as positive controls and were regarded as 100% translation. Paromomycin was used as a control reagent in all assays. At least six different concentrations were used to plot each translation inhibition curve; experiments were performed in three independent repeats in duplicate. Half maximal inhibition concentrations (IC50) values were calculated from the concentration-response fitting curves using GraFit7.0.3 software.

Data set [2] concerns L. tarentolae lysate. Kind of data set: Cell-free transcription-translation inhibition in L. tarentolae lysate. Type of data set: biochemical. The note with it: inhibition of translation in active cell lysate, EGFP reporter, 120 min at 26 °C. How it is done: as §1
Data set [3] relates to L. infantum WT amastigotes in BMDM. The data set is described as follows: Drug susceptibility of intracellular amastigotes in infected BMDM, L. infantum. The format is cell-based. The following applies: Leishmania infantum; infected BMDM macrophages, 48 h; read-out: EC50 against amastigotes of L. infantum. The protocol: (§2) The effect of isopropyl ether 22a on the amastigote intracellular form of Leishmania was determined by the measurement of EC50 values in cells, as previously described. Briefly, 2.5 × 10^5 bone-marrow-derived macrophages (BMDMs) were plated into the wells of 12-well chamber slides (Ibidi) with complete DMEM medium. A culture of L. infantum or L. major WT promastigotes in stationary phase in a ratio of 1:5 BMDM to parasites was used to infect cells. Infection was carried out for 3 h at 37 °C in DMEM medium with 5% CO2 without drug. After 24 h, increasing concentrations of ether 22a were added to the medium containing the infected macrophages. After 48 h, the slides were fixed in methanol and stained with Diff-Quick solution to facilitate parasite visualization. The number of infecting amastigotes per 100 cells was determined by examining 300 macrophages per triplicate assay and normalized to the untreated control. EC50 values in the amastigote form were calculated based on dose–response curves that were analyzed by non-linear regression using the GraphPad Prism 9.0 software. An average of three independent biological replicates was used to perform the analyses.

Data set [4] deals with Leishmania infantum (MHOM/MA/67/ITMAP-263) resistant to 200 µM miltefosine. The data set is described as follows: Anti-leishmanial activity on promastigotes, miltefosine-resistant L. infantum. Type of data set: cell-based. The note with it: 72 h. How it is done:
(§3) The L. infantum (MHOM/MA/67/ITMAP-263) wild-type strain (WT), as well as the resistant mutants Sb2000.1, AmB1000.1, and MF200.5 [29, 30, 31, 32, 33], which are respectively resistant to antimony (Sb^III), amphotericin B (AmB), and miltefosine (MF), were grown in M199 medium at 25 °C supplemented with 10% fetal bovine serum, 5 μg/mL of haemin at pH 7.0, 2000 μM Sb (Potassium antimonyl tartrate trihydrate, Sigma-Aldrich, Saint Louis, MO, USA), 200 μM of MF (Miltefosine, Cayman Chem, Ann Arbor, MI, USA) or 1 μM AmB (Amphotericin B solution, Sigma-Aldrich, Saint Louis, MO, USA). Leishmanicidal values were determined in Leishmania promastigotes by monitoring the replication of parasites after 72 h of incubation at 25 °C in the presence of increasing concentrations of the different compounds by measuring A600 using a Cytation 5 machine (BioTek-Agilent, Santa Clara, CA 9, USA). EC50 values were calculated based on dose–response curves analyzed by non-linear regression with GraphPad Prism 10.0 software (GraphPad Software, La Jolla, CA, USA). An average of at least three independent biological replicates were performed for each determination.

Data set [5] concerns Leishmania infantum (MHOM/MA/67/ITMAP-263) wild-type strain. Kind of data set: Anti-leishmanial activity on promastigotes, L. infantum WT. The format is cell-based. The note with it: 72 h, 25 °C. The protocol:
as §3

For data set [6], the system named is Leishmania major Friedlin. Kind of data set: Anti-leishmanial activity on promastigotes, L. major Friedlin. The format is cell-based. The note with it: 72 h, 25 °C.
Data set [7] deals with host macrophage (BMDM). The data set is described as follows: Host macrophage toxicity, MTT survival assay. Type of data set: cell-based.
Data set [8] relates to Leishmania infantum (MHOM/MA/67/ITMAP-263) resistant to 2 mM trivalent (and pentavalent) antimonials. Kind of data set: Anti-leishmanial activity on promastigotes, antimony-resistant L. infantum. Type of data set: cell-based. The note with it: 72 h. The protocol:
as §3

In data set [9] the test system is Leishmania infantum (MHOM/MA/67/ITMAP-263) resistant to 1 µM amphotericin B. Kind of data set: Anti-leishmanial activity on promastigotes, amphotericin B-resistant L. infantum. The format is cell-based. The following applies: 72 h. How it is done:
as §3

Data set [10] concerns L. major WT amastigotes in BMDM. Kind of data set: Drug susceptibility of intracellular amastigotes in infected BMDM, L. major. The format is cell-based. The following applies: Leishmania major; infected BMDM macrophages, 48 h; read-out: EC50 against amastigotes of L. major. How it is done: as §2
Data set [11] deals with extract of E. coli (S30). The data set is described as follows: Cell-free transcription-translation inhibition in E. coli S30 extract. The format is biochemical. The note with it: for IC50: inhibition of translation in active cell lysate, luciferase reporter, 60 min at 37 °C. The protocol:
as §1

[12] abbreviates: Leishmania infantum, read-out: IC50 (μM) Ldi MF-Res.
[13] abbreviates: Leishmania infantum, read-out: IC50 (μM) Ldi WT.
Where [14] appears, read: Leishmania major, read-out: IC50 (μM) LmF WT.
[15] abbreviates: Leishmania infantum, read-out: IC50 (μM) Ldi Sb-Res.
[16] abbreviates: Leishmania infantum, read-out: IC50 (μM) Ldi AmB-Res.

Where two headings read alike, the source gives them in different places.

`CC(=O)O[C@@H]1[C@@H](O)CN[C@@H]1Cc1ccc(OC(C)C)cc1` [Analog 22a, (2R,3S,4S)-4-hydroxy-2-(4-iso-propoxybenzyl)-pyrrolidin-3-yl acetate]: the IC50 was 0.9 ± 0.3 µM in [1]; 1.13 ± 0.12 µM in data set [2]; 0.133 ± 0.0078 µM in [4] (Leishmania infantum, read-out: IC50 Ldi MF-Res); 122 ± 5.62 nM in data set [5] (Leishmania infantum, unit nM, read-out: IC50 Ldi WT); 180 ± 4.69 nM in [6] (Leishmania major, unit nM, read-out: IC50 LmF WT); 0.129 ± 0.00316 µM in [8] (Leishmania infantum, read-out: IC50 Ldi Sb-Res). Moreover, the IC50 was 0.119 ± 0.0141 µM in data set [9] (Leishmania infantum, read-out: IC50 Ldi AmB-Res) and greater than 200 µM in [11]. The EC50 in data set [3] amounted to 0.0333 µM; in data set [10], 0.0537 µM. Further, the “fold greater selectivity against the different amastigotes relative to host macrophage toxicity” value in data set [7] (MTT survival assay) is 5–10 fold. The “host cell toxicity (in words)” value in [7] (host BMDM cells) was “without host cell toxicity”. In data set [11] (translation assay), the “effect on E. coli (in words)” value is given as “no effect”.
`CCCCCCCCOc1ccc(C[C@H]2NC[C@H](O)[C@H]2OC(C)=O)cc1` [Analog 22b, (2R,3S,4S)-4-hydroxy-2-(4-octyloxybenzyl)-pyrrolidin-3-yl acetate]: the IC50 in data set [1] is 9.5 ± 3.5 µM; in data set [2] it was 33.5 ± 8.2 µM; in data set [4] (setting [12]), 1.83 ± 0.06 µM; in [5] (setting [13]), 1110 ± 30 nM; in data set [6] (setting [14]) it was 1750 ± 120 nM; in data set [8] (setting [15]) it was 1.75 ± 0.08 µM. The IC50 in data set [9] (setting [16]) is 1.78 ± 0.58 µM; in [11], greater than 200 µM.
With `CC(=O)O[C@@H]1[C@@H](O)CN[C@@H]1Cc1ccc(OCC(=O)O)cc1` [Analog 22d, (2R,3S,4S)-4-hydroxy-2-(4-carboxymethyloxybenzyl)-pyrrolidin-3-yl acetate], the IC50 in data set [4] (setting [12]) is 18.2 ± 2.33 µM; in [5] (setting [13]), 14900 ± 2180 nM; in data set [6] (setting [14]), 16600 ± 2230 nM; in data set [8] (setting [15]), 16 ± 1.03 µM; in data set [9] (setting [16]), 19.2 ± 1.24 µM.
`CCCCCCCCCCCCCCCCOP(=O)([O-])OCC[N+](C)(C)C` [Miltefosine, reference compound]: the IC50 is greater than 200 µM in data set [4] (setting [12]); 7160 ± 210 nM in data set [5] (setting [13]); 8470 ± 1180 nM in data set [6] (setting [14]); 8.21 ± 0.53 µM in data set [8] (setting [15]); 30.3 ± 4.28 µM in data set [9] (setting [16]).
For the molecule “Potassium antimonyl tartrate trihydrate [reference compound]”, the IC50 was 85.3 ± 7.1 µM in data set [4] (promastigotes, 25 °C, read-out: IC50 (μM) Ldi MF-Res); 75800 ± 6130 nM in data set [5] (read-out: IC50 (μM) Ldi WT); 25000 ± 1130 nM in data set [6] (read-out: IC50 (μM) LmF WT); greater than 2000 µM in data set [8] (promastigotes, 25 °C, read-out: IC50 (μM) Ldi Sb-Res); 90.2 ± 8.3 µM in [9] (promastigotes, 25 °C, read-out: IC50 (μM) Ldi AmB-Res).
